From publication PMC10590756, “Glutarate regulates T cell metabolism and anti-tumour immunity” (Nature Metabolism, 2023) come the findings set out here.

One series concerns CD8^+ T cells. As to the kind of experiment: Western blot of PDHK1, phosphorylated PDHc and PDHc. It is filed as cell-based, human. Conditions: 500 µM DEG. Here is the method:
Cell pellets were lysed by either urea-Tris buffer (8 M urea, 50 mM Tris-HCl (pH 7.5), 150 mM β-mercaptoethanol), sonicated twice for 45 s intercalated with 1 min incubation on ice and centrifuged at 14,000g, 4 °C for 15 min or by RIPA Lysis and Extraction Buffer (catalogue no. 89900, Thermo Fisher Scientific), according to the manufacturer’s instructions. Nuclear and cytosolic fractions were prepared from cells using the NE-PER kit (catalogue no. 78833, Thermo Fisher Scientific). Histones were extracted with the Histone Extraction Kit (catalogue no. ab113476, Abcam). Proteins were separated by SDS–PAGE and transferred to polyvinylidene fluoride (PVDF) membranes. Total protein stain was obtained using non-stain protein labelling reagent (catalogue no. A44448, Thermo Fisher Scientific). Membranes were then blocked in 5% milk prepared in PBS plus 0.05% Tween-20, incubated with primary antibodies overnight at 4 °C and horseradish peroxidase (HRP)-conjugated secondary antibodies (catalogue nos. HAF008 and HAF007, R&D Systems) for 1 h the next day. After enhanced chemiluminescence (ECL) exposure (catalogue no. GERPN2106, Sigma-Aldrich), membranes were imaged using an iBrightCL1000 (Thermo Fisher Scientific). The following primary antibodies from Cell Signaling Technology were used at a concentration of 1:1,000: anti-PDHK1 (catalogue no. 3820); anti-β-actin (catalogue no. 12262S); anti-PPIB (catalogue no. 43603); anti-OGDH (catalogue no. 26865S); anti-phospho-PDH α1 (catalogue no. 37115); anti-SIRT5 (catalogue no. 8779S); anti-H3 (catalogue no. 4499); anti-H3K4me2 (catalogue no. 9725); anti-H3K4me3 (catalogue no. 9751); anti-H3K9me2 (catalogue no. 4658); anti-H3K9me3 (catalogue no. 13969); anti-H3K27me2 (catalogue no. 9728); anti-H3K27me3 (catalogue no. 9733); anti-H3K36me2 (catalogue no. 2901); anti-H3K36me3 (catalogue no. 4909); anti-H3K79me2 (catalogue no. 5427); anti-H3K79me3 (catalogue no. 4360); anti-H3k9ac (catalogue no. 9649); anti-H3K18ac (catalogue no. 13998); and anti-H3k27ac (catalogue no. 8173). […]
A general note: In western blotting, separated proteins are transferred to a membrane and probed.

Another series relates to murine OT1 T cells. As to the kind of experiment: Growth of murine OT1 T cells. In kind it is cell-based, mouse. Conditions: 500 µM, 7 days. Here is the method: B16F10 cells were originally purchased from ATCC (catalogue no. CRL-6475) and genetically modified to express OVA, enhanced green fluorescent protein (GFP) and neomycin phosphotransferase. The resulting OVA expression B16F10-OVA cells were cultured in DMEM (catalogue no. 11995065, Thermo Fisher Scientific) containing 0.75 mg ml^−1 G418 sulphate (catalogue no. 10131027, Thermo Fisher Scientific). HEK 293T cells were purchased from Takara Bio (catalogue no. 632180) and cultured in DMEM. SKOV3 was purchased from ATCC (catalogue no. HTB-77) and cultured in McCoy’s 5A (Modified) Medium (catalogue no. 16600082, Thermo Fisher Scientific). Raji-GFP-Luc cells were purchased from Biocytogen (catalogue no. B-HCL-010) and cultured in Roswell Park Memorial Institute (RPMI) 1640 (catalogue no. 21875, Thermo Fisher Scientific). Jurkat cells were purchased from ATCC (catalogue no. TIB-152) and cultured in RPMI 1640. RAW 264.7 cells were purchased from ATCC (catalogue no. TIB-71) and cultured in RPMI 1640. HeLa cells were a gift from P. Lehner (University of Cambridge) and were authenticated using short tandem repeat profiling (Eurofins Genomics). HeLa cells were cultured in DMEM. […] Cell number and viability was determined using the ADAM-MC Automated Cell Counter (NanoEntek), CellDrop Automated Cell Counter (DeNovix) or TC20 Automated Cell Counter (Bio-Rad Laboratories).

In the case of `CCOC(=O)CCCC(=O)OCC` [DEG, Diethyl glutarate], in the series on CD8^+ T cells, the PDHK1 protein levels entry is “not significantly altered”, the PDHc phosphorylation levels entry was “did not observe any changes” and the “protein expression of the PDHc” value is recorded as “did not alter”. Also, in the series on murine OT1 T cells, the “growth of murine OT1 T cells” value is reported as “did not affect the growth”.
